According to ChEMBL document CHEMBL1128575, “Nonpeptidic inhibitors of human leukocyte elastase. 5. Design, synthesis, and X-ray crystallography of a series of orally active 5-aminopyrimidin-6-one-containing trifluoromethyl ketones” (J Med Chem, 1995):
Converted amounts (≈) assume the structure as drawn. The source made the active and inactive calls. The rule behind the calls is not given here.

Tests used:
Neutrophil elastase = target: T1, Neutrophil elastase (Homo sapiens, UniProt P08246); assay: In vitro inhibition of human leukocyte elastase mediated hydrolysis of the synthetic substrate MeO-Suc-Ala-Ala-Pro-Val-pNA
T1 sequence (P08246 whole entry): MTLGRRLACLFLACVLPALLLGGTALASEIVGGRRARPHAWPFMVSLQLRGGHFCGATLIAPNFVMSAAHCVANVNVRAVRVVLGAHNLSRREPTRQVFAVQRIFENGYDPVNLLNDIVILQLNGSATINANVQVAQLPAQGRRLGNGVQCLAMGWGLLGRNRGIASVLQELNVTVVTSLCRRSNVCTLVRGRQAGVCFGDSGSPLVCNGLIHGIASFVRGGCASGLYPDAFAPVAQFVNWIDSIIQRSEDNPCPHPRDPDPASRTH

Cricetinae gen. sp. [1] = assay: Oral dose of 20 mg/Kg (30 min prior to instillation of elastase) was tested for the inhibition of elastase-induced lung hemorrhage in hamster; Not active; assay type: functional, organism-based; details: Cricetulus griseus
[2] = Selectivity ratio for bovine pancreatic chymotrypsin and HLE
[3] = Partition coefficient (logP); assay type: physicochemical; details: octanol/water
[4] = Solubility of compound in 0.01 M sodium phosphate buffer at pH = […]; assay type: physicochemical; details: pH 7.4
Cricetinae gen. sp. [5] = assay: Oral dose of 2.5 mg/Kg (90 min prior to instillation of elastase) was tested for the inhibition of elastase-induced lung hemorrhage in hamster; assay type: functional, Cricetulus griseus
Cricetinae gen. sp. [6] = assay: Compound at an oral dose of 20 mg/Kg (90 min prior to instillation of elastase) was tested for the inhibition of elastase-induced lung hemorrhage in hamster; assay type: functional, Cricetulus griseus
Cricetinae gen. sp. [7] = assay: Oral dose of 20 mg/Kg (30 min prior to instillation of elastase) was tested for the inhibition of elastase-induced lung hemorrhage in hamster; assay type: functional, Cricetulus griseus
Cricetinae gen. sp. [8] = assay: Oral dose of 2.5 mg/Kg (30 min prior to instillation of elastase) was tested for the inhibition of elastase-induced lung hemorrhage in hamster; assay type: functional, Cricetulus griseus
Cricetinae gen. sp. [9] = assay: Compound at an oral dose of 2.5 mg/Kg (90 min prior to instillation of elastase) was tested for the inhibition of elastase-induced lung hemorrhage in hamster; Not active; assay type: functional, organism-based; details: Cricetulus griseus
Cricetinae gen. sp. [10] = assay: Oral dose of 2.5 mg/Kg (30 min prior to instillation of elastase) was tested for the inhibition of elastase-induced lung hemorrhage in hamster; Not active; assay type: functional, organism-based; details: Cricetulus griseus

SMILES	Ki (Neutrophil elastase) [nM]	inhibition (Cricetinae gen. sp. [1])	inhibition in vivo at 20 mg/kg (Cricetinae gen. sp. [7]) [%]	further results
CC(C)C(NC(=O)Cn1c(-c2ccc(F)cc2)ncc(NC(=O)OCc2ccccn2)c1=O)C(=O)C(F)(F)F (stereo unspecified)	22	inactive		
CC(C)C(NC(=O)Cn1c(-c2ccc(N)cc2)ncc(NC(=O)OCc2ccccc2)c1=O)C(=O)C(F)(F)F (stereo unspecified)	3.6	inactive		
CC(C)C(NC(=O)Cn1c(-c2ccc(C(F)(F)F)cc2)ncc(NC(=O)OCc2ccccc2)c1=O)C(=O)C(F)(F)F (stereo unspecified)	42	inactive		Ratio [2]: 164; logP [3]: 2.3; solubility [4]: 25 µg/mL (≈ 41.8 µM)
CC(C)C(NC(=O)Cn1c(-c2ccccc2)ncc(NC(=O)OCC(F)(F)F)c1=O)C(=O)C(F)(F)F (stereo unspecified)	40			inhibition in vivo at 2.5 mg/kg (Cricetinae gen. sp. [5]): 39%; inhibition in vivo at 20 mg/kg (Cricetinae gen. sp. [6]): 47%
CC(C)C(NC(=O)Cn1c(-c2cc(C(F)(F)F)cc(C(F)(F)F)c2)ncc(NC(=O)OCc2ccccc2)c1=O)C(=O)C(F)(F)F (stereo unspecified)	72	inactive		
CCNc1cnc(-c2cccs2)n(CC(=O)NC(C(=O)C(F)(F)F)C(C)C)c1=O (stereo unspecified)	26		52	inhibition in vivo at 2.5 mg/kg (Cricetinae gen. sp. [5]): 32%
CC(C)C(NC(=O)Cn1c(-c2ccc(F)cc2)ncc(NC(=O)OCc2ccncc2)c1=O)C(=O)C(F)(F)F (stereo unspecified)	23	inactive		
CC(C)C(NC(=O)Cn1c(-c2cccs2)ncc(N)c1=O)C(=O)C(F)(F)F (stereo unspecified)	52		75	inhibition in vivo at 2.5 mg/kg (Cricetinae gen. sp. [5]): 37%; inhibition in vivo at 2.5 mg/kg (Cricetinae gen. sp. [8]): 47%
CC(C)C(NC(=O)Cn1c(-c2ccc(NC(=O)C(F)(F)F)cc2)ncc(NC(=O)OCc2ccccc2)c1=O)C(=O)C(F)(F)F (stereo unspecified)	43	inactive		
CC(C)C(NC(=O)Cn1c(-c2ccccc2)ncc(NC(=O)C(F)(F)F)c1=O)C(=O)C(F)(F)F (stereo unspecified)	94		73	inhibition (Cricetinae gen. sp. [9]): inactive; inhibition in vivo at 2.5 mg/kg (Cricetinae gen. sp. [8]): 37%
CC(C)C(NC(=O)Cn1c(-c2ccc(F)cc2)ncc(N)c1=O)B1OC(C)(C)C(C)(C)O1 (stereo unspecified)	6.2		39	inhibition (Cricetinae gen. sp. [10]): inactive
CC(C)C(NC(=O)Cn1c(-c2cccs2)ncc(N)c1=O)B1OC(C)(C)C(C)(C)O1 (stereo unspecified)	4.9		50	inhibition (Cricetinae gen. sp. [10]): inactive
CC(C)C(NC(=O)Cn1c(-c2ccc(F)cc2)ncc(NS(=O)(=O)C2CCCCC2)c1=O)B1OC(C)(C)C(C)(C)O1 (stereo unspecified)	0.21			inhibition (Cricetinae gen. sp. [9]): inactive; inhibition in vivo at 2.5 mg/kg (Cricetinae gen. sp. [8]): 31%
CC(C)C(NC(=O)Cn1c(-c2cccs2)ncc(NC(=O)OCc2ccccc2)c1=O)C(=O)C(F)(F)F (stereo unspecified)	11		57	Ratio [2]: 162; logP [3]: 2; solubility [4]: 48 µg/mL (≈ 89.5 µM)
CC(C)c1ncc(NC(=O)OCc2ccccc2)c(=O)n1CC(=O)NC(C(=O)C(F)(F)F)C(C)C (stereo unspecified)	170	inactive		Ratio [2]: 100; logP [3]: 2.6; solubility [4]: 40 µg/mL (≈ 80.6 µM)
CC(C)C(NC(=O)Cn1c(-c2ccccc2)ncc(NC(=O)OCc2ccccc2)c1=O)C(=O)C(F)(F)F (stereo unspecified)			54	logP [3]: 2.1
CC(C)C(NC(=O)Cn1c(-c2ccc(F)cc2)ncc(NS(=O)(=O)C2CCCCC2)c1=O)C(=O)C(F)(F)F (stereo unspecified)	1.6			inhibition (Cricetinae gen. sp. [10]): inactive
CC(C)C(NC(=O)Cn1c(-c2ccc(N)cc2)ncc(NS(C)(=O)=O)c1=O)C(=O)C(F)(F)F (stereo unspecified)		inactive		
CC(C)C(NC(=O)Cn1c(-c2ccc(F)cc2)ncc(NC(=O)OCc2ccccc2)c1=O)C(=O)C(F)(F)F (stereo unspecified)			54	logP [3]: 2.2; solubility [4]: 6.9 µg/mL (≈ 12.6 µM)
